Reference: PubChem BioAssay AID2060617 (Molecular Pharmacology Branch, DTP, NCI, 2025)
pIC50: −log10 of the molar value. “And” between values parts separate entries of the source, which are not always exact repeats. Identical values can stand only once.

Tested on: 485368-065-R4-J2-PDC spheroids with HUVEC/MSC, viability
Experiment: Anticancer human tumor 485368-065-R4-J2-PDC patient-derived pancreatic carcinoma cell line growth inhibition [CLK]
Conditions: for viability, T/C: stronger effect = lower value
Procedure, shortened: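 Multi-cell-type spheroids combined patient-derived tumor cells with HUVEC endothelial cells and human mesenchymal stem cells. Paired agents were dosed in half-log steps down from about clinical Cmax, or from 10 microM where Cmax was unknown.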

[1] = curve of first compound, second compound 0.0316 µM
[2] = curve of first compound, second compound 0.1 µM
[3] = curve of first compound, second compound 0.316 µM
[4] = curve of first compound, second compound 1 µM
[5] = curve of first compound, second compound 3.16 µM
[6] = curve of first compound, second compound 10 µM
[7] = second compound 0.0316 µM, first compound 0.0316 µM
[8] = second compound 0.0316 µM, first compound 0.1 µM
[9] = second compound 0.0316 µM, first compound 0.316 µM
[10] = second compound 0.0316 µM, first compound 1 µM
[11] = second compound 0.0316 µM, first compound 3.16 µM
[12] = second compound 0.0316 µM, first compound 10 µM
[13] = second compound 0.1 µM, first compound 0.0316 µM
[14] = second compound 0.1 µM, first compound 0.1 µM
[15] = second compound 0.1 µM, first compound 0.316 µM
[16] = second compound 0.1 µM, first compound 1 µM
[17] = second compound 0.1 µM, first compound 3.16 µM
[18] = second compound 0.1 µM, first compound 10 µM
[19] = second compound 0.316 µM, first compound 0.0316 µM
[20] = second compound 0.316 µM, first compound 0.1 µM
[21] = second compound 0.316 µM, first compound 0.316 µM
[22] = second compound 0.316 µM, first compound 1 µM
[23] = second compound 0.316 µM, first compound 3.16 µM
[24] = second compound 0.316 µM, first compound 10 µM
[25] = second compound 1 µM, first compound 0.0316 µM
[26] = second compound 1 µM, first compound 0.1 µM
[27] = second compound 1 µM, first compound 0.316 µM
[28] = second compound 1 µM, first compound 1 µM
[29] = second compound 1 µM, first compound 3.16 µM
[30] = second compound 1 µM, first compound 10 µM
[31] = second compound 3.16 µM, first compound 0.0316 µM
[32] = second compound 3.16 µM, first compound 0.1 µM
[33] = second compound 3.16 µM, first compound 0.316 µM
[34] = second compound 3.16 µM, first compound 1 µM
[35] = second compound 3.16 µM, first compound 3.16 µM
[36] = second compound 3.16 µM, first compound 10 µM
[37] = second compound 10 µM, first compound 0.0316 µM
[38] = second compound 10 µM, first compound 0.1 µM
[39] = second compound 10 µM, first compound 0.316 µM
[40] = second compound 10 µM, first compound 1 µM
[41] = second compound 10 µM, first compound 3.16 µM
[42] = second compound 10 µM, first compound 10 µM
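Further: spheroids exposed to compounds for seven days.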
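Wherever viability, T/C is given: 100% = DMSO vehicle control wells.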

## Nc1ccn(C2OC(CO)C(O)C2(F)F)c(=O)n1 (configuration not stated) + CN1CCN(c2cc(C(=O)Nc3cc4cc(-c5cnn(C)c5)ccc4cn3)ccn2)CC1
[1]
  pIC50: > 7.50
[2]
  pIC50: > 7.50
[3]
  pIC50: > 7.50
[4]
  pIC50: > 7.50
[5]
  pIC50: > 7.50
[6]
  pIC50: > 7.50
[7]
  viability, T/C: 48.5%
[8]
  viability, T/C: 32.7%
[9]
  viability, T/C: 24.1%
[10]
  viability, T/C: 24.2%
[11]
  viability, T/C: 25.3%
[12]
  viability, T/C: 21.6%
[13]
  viability, T/C: 39.2%
[14]
  viability, T/C: 21.1%
[15]
  viability, T/C: 19.5%
[16]
  viability, T/C: 16.6%
[17]
  viability, T/C: 16.6%
[18]
  viability, T/C: 13.8%
[19]
  viability, T/C: 28.5%
[20]
  viability, T/C: 16.6%
[21]
  viability, T/C: 14.1%
[22]
  viability, T/C: 14.9%
[23]
  viability, T/C: 14.1%
[24]
  viability, T/C: 12.8%
[25]
  viability, T/C: 0.77%
[26]
  viability, T/C: 2.15%
[27]
  viability, T/C: 3.11%
[28]
  viability, T/C: 1.96%
[29]
  viability, T/C: 2.6%
[30]
  viability, T/C: 3.01%
[31]
  viability, T/C: 1.85%
[32]
  viability, T/C: 1.43%
[33]
  viability, T/C: 2.71%
[34]
  viability, T/C: 4.76%
[35]
  viability, T/C: 2.68%
[36]
  viability, T/C: 5.26%
[37]
  viability, T/C: 1.32%
[38]
  viability, T/C: 2.34%
[39]
  viability, T/C: 1.93%
[40]
  viability, T/C: 2.61%
[41]
  viability, T/C: 2.98%
[42]
  viability, T/C: 2.55%

## COc1cccc2c1C(=O)c1c(O)c3c(c(O)c1C2=O)CC(O)(C(=O)CO)CC3OC1CC(N)C(O)C(C)O1 (configuration not stated) + CN1CCN(c2cc(C(=O)Nc3cc4cc(-c5cnn(C)c5)ccc4cn3)ccn2)CC1
[1]
  pIC50: 6.47
[2]
  pIC50: 6.67
[3]
  pIC50: 7.06
[4]
  pIC50: > 7.50
[5]
  pIC50: > 7.50
[6]
  pIC50: > 7.50
[7]
  viability, T/C: 97.5%
[8]
  viability, T/C: 91.9%
[9]
  viability, T/C: 51.1%
[10]
  viability, T/C: 22.8%
[11]
  viability, T/C: 6.06%
[12]
  viability, T/C: 20.1%
[13]
  viability, T/C: 95.9%
[14]
  viability, T/C: 81.3%
[15]
  viability, T/C: 34.5%
[16]
  viability, T/C: 13.1%
[17]
  viability, T/C: 5.58%
[18]
  viability, T/C: 20.2%
[19]
  viability, T/C: 69.8%
[20]
  viability, T/C: 47.2%
[21]
  viability, T/C: 12.7%
[22]
  viability, T/C: 6.03%
[23]
  viability, T/C: 8.55%
[24]
  viability, T/C: 26.6%
[25]
  viability, T/C: 0.88%
[26]
  viability, T/C: 0.73%
[27]
  viability, T/C: 1.56%
[28]
  viability, T/C: 5.86%
[29]
  viability, T/C: 12.6%
[30]
  viability, T/C: 28.8%
[31]
  viability, T/C: 1.17%
[32]
  viability, T/C: 1.22%
[33]
  viability, T/C: 2.37%
[34]
  viability, T/C: 6.61%
[35]
  viability, T/C: 14.8%
[36]
  viability, T/C: 30.9%
[37]
  viability, T/C: 1.73%
[38]
  viability, T/C: 1.28%
[39]
  viability, T/C: 2.28%
[40]
  viability, T/C: 8.69%
[41]
  viability, T/C: 14.6%
[42]
  viability, T/C: 27.2%

## O=C(c1cc(Cc2n[nH]c(=O)c3ccccc23)ccc1F)N1CCN(C(=O)C2CC2)CC1 + CN1CCN(c2cc(C(=O)Nc3cc4cc(-c5cnn(C)c5)ccc4cn3)ccn2)CC1
[1]
  pIC50: < 5.00
[2]
  pIC50: < 5.00
[3]
  pIC50: 5.05
[4]
  pIC50: > 7.50
[5]
  pIC50: > 7.50
[6]
  pIC50: > 7.50
[7]
  viability, T/C: 92.6%
[8]
  viability, T/C: 111%
[9]
  viability, T/C: 106%
[10]
  viability, T/C: 110%
[11]
  viability, T/C: 105%
[12]
  viability, T/C: 82.6%
[13]
  viability, T/C: 107%
[14]
  viability, T/C: 105%
[15]
  viability, T/C: 105%
[16]
  viability, T/C: 103%
[17]
  viability, T/C: 105%
[18]
  viability, T/C: 76%
[19]
  viability, T/C: 79%
[20]
  viability, T/C: 79.9%
[21]
  viability, T/C: 79.7%
[22]
  viability, T/C: 81.1%
[23]
  viability, T/C: 70.5%
[24]
  viability, T/C: 47.5%
[25]
  viability, T/C: 1.08%
[26]
  viability, T/C: 1.02%
[27]
  viability, T/C: 1.67%
[28]
  viability, T/C: 2.06%
[29]
  viability, T/C: 2.06%
[30]
  viability, T/C: 2.39%
[31]
  viability, T/C: 1.23%
[32]
  viability, T/C: 1.3%
[33]
  viability, T/C: 1.64%
[34]
  viability, T/C: 2.47%
[35]
  viability, T/C: 1.39%
[36]
  viability, T/C: 3.02%
[37]
  viability, T/C: 1.53%
[38]
  viability, T/C: 1.87%
[39]
  viability, T/C: 2.81%
[40]
  viability, T/C: 2.7%
[41]
  viability, T/C: 2.29%
[42]
  viability, T/C: 1.73%

## COc1cccc2c1C(=O)c1c(O)c3c(c(O)c1C2=O)CC(O)(C(=O)CO)CC3OC1CC(N)C(O)C(C)O1 (configuration not stated) + CNC(=O)c1ccc(Nc2nc(OC3CCCC3)c3c(-c4ccc5nc(C)oc5c4)c[nH]c3n2)c(OC)c1
[1]
  pIC50: 6.35
[2]
  pIC50: 6.39
[3]
  pIC50: 6.57
[4]
  pIC50: 6.81
[5]
  pIC50: 6.87
[6]
  pIC50: 6.95
[7]
  viability, T/C: 89.3%
[8]
  viability, T/C: 94.2%
[9]
  viability, T/C: 56.9%
[10]
  viability, T/C: 31.6%
[11]
  viability, T/C: 8.22%
[12]
  viability, T/C: 23.9%
[13]
  viability, T/C: 101%
[14]
  viability, T/C: 100%
[15]
  viability, T/C: 55.9%
[16]
  viability, T/C: 26.9%
[17]
  viability, T/C: 7.71%
[18]
  viability, T/C: 22.3%
[19]
  viability, T/C: 101%
[20]
  viability, T/C: 86.2%
[21]
  viability, T/C: 45%
[22]
  viability, T/C: 18.6%
[23]
  viability, T/C: 6.61%
[24]
  viability, T/C: 25.7%
[25]
  viability, T/C: 91%
[26]
  viability, T/C: 66%
[27]
  viability, T/C: 25.1%
[28]
  viability, T/C: 11.3%
[29]
  viability, T/C: 6.11%
[30]
  viability, T/C: 23.9%
[31]
  viability, T/C: 76.6%
[32]
  viability, T/C: 61.7%
[33]
  viability, T/C: 17.9%
[34]
  viability, T/C: 8.87%
[35]
  viability, T/C: 6.5%
[36]
  viability, T/C: 15.5%
[37]
  viability, T/C: 76.6%
[38]
  viability, T/C: 53.4%
[39]
  viability, T/C: 17.2%
[40]
  viability, T/C: 7.28%
[41]
  viability, T/C: 7.64%
[42]
  viability, T/C: 17.4%

## CCc1c2c(nc3ccc(O)cc13)-c1cc3c(c(=O)n1C2)COC(=O)[C@]3(O)CC
Compound 0.00316 µM
  viability, T/C: 46.5% and 55.5%
Compound 0.01 µM
  viability, T/C: 22.5% and 24.9%
Compound 0.0316 µM
  viability, T/C: 10.9% and 13.2%
Compound 0.1 µM
  viability, T/C: 7.63% and 7.75%
Compound 0.316 µM
  viability, T/C: 7.05% and 6.79%
Compound 1 µM
  viability, T/C: 14.8% and 15.6%
Curve of compound
  pIC50: > 8.50 and 8.42

## COC1C=CCC(C)C(C)S(=O)(=O)NC(=O)c2ccc3c(c2)N(CC2CCC21)CC1(CCCc2cc(Cl)ccc21)CO3 (configuration not stated) + CNC(=O)c1ccc(Nc2nc(OC3CCCC3)c3c(-c4ccc5nc(C)oc5c4)c[nH]c3n2)c(OC)c1
[1]
  pIC50: < 5.00
[2]
  pIC50: < 5.00
[3]
  pIC50: < 5.00
[4]
  pIC50: < 5.00
[5]
  pIC50: < 5.00
[6]
  pIC50: < 5.00
[7]
  viability, T/C: 88.7%
[8]
  viability, T/C: 82.8%
[9]
  viability, T/C: 96.8%
[10]
  viability, T/C: 105%
[11]
  viability, T/C: 103%
[12]
  viability, T/C: 85.9%
[13]
  viability, T/C: 96%
[14]
  viability, T/C: 99.7%
[15]
  viability, T/C: 105%
[16]
  viability, T/C: 96.4%
[17]
  viability, T/C: 92.8%
[18]
  viability, T/C: 91.3%
[19]
  viability, T/C: 82.5%
[20]
  viability, T/C: 77.9%
[21]
  viability, T/C: 89.8%
[22]
  viability, T/C: 89.7%
[23]
  viability, T/C: 98.8%
[24]
  viability, T/C: 102%
[25]
  viability, T/C: 83.2%
[26]
  viability, T/C: 74.1%
[27]
  viability, T/C: 73.7%
[28]
  viability, T/C: 74.9%
[29]
  viability, T/C: 91.8%
[30]
  viability, T/C: 105%
[31]
  viability, T/C: 71.2%
[32]
  viability, T/C: 69.7%
[33]
  viability, T/C: 72.9%
[34]
  viability, T/C: 68.4%
[35]
  viability, T/C: 94.2%
[36]
  viability, T/C: 102%
[37]
  viability, T/C: 65.5%
[38]
  viability, T/C: 68.6%
[39]
  viability, T/C: 69.1%
[40]
  viability, T/C: 66.7%
[41]
  viability, T/C: 82.3%
[42]
  viability, T/C: 85.9%
